In patent US7550469B2, “Heterocyclic amide derivatives and their use as dopamine D3 receptor ligands” (Aventis Pharmaceuticals Inc., priority 2001, dated 2009):

biological target: T1, cloned human dopamine D3 receptors (Homo sapiens, UniProt P35462); assay: [N-Methyl-3H]Spiroperidol binding to cloned human dopamine D3 receptors (Protocol 1); settings: the 23rd table; read-out: D3 Ki
T1 construct: expressed in transfected cells; membrane homogenate
Procedure, shortened: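 Membranes from CHO cells stably expressing cloned human D3 receptor were used for [N-methyl-3H]spiroperidol (60-90 Ci/mmol) binding. Assay buffer was 0.05 M Tris HCl pH 7.7 with 120 mM NaCl, 5 mM KCl, 2 mM CaCl2 and 1 mM MgCl2, optionally 0.1% ascorbic acid; total ligand concentration calculated from added CPM.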

T1 sequence (P35462 whole entry): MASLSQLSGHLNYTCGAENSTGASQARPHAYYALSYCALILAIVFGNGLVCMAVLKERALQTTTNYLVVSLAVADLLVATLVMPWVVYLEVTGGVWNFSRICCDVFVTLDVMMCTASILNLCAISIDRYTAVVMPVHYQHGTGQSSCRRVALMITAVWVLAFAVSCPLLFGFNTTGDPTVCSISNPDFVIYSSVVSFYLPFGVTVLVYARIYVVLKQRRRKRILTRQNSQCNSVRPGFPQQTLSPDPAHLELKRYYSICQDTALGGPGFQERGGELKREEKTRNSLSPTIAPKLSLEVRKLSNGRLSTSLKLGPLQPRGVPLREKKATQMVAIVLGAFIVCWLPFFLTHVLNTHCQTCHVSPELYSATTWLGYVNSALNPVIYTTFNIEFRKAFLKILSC

Ki	Structure (SMILES)
54.9 nM	FC(F)(F)Oc1cccc(CNC[C@@H]2C[C@H]2CN2CCN(c3csc4cc(C(F)(F)F)ccc34)CC2)c1 [compound 833067]
2.62 nM	FC(F)(F)c1ccc2c(N3CCN(C[C@@H]4C[C@H]4CNCCCn4ccnc4)CC3)csc2c1 [compound 833257, (3-imidazol-1-yl-propyl)-{(1R,2R)-2-[4-(6-trifluoromethyl-benzo[b]thiophen-3-yl)-piperazin-1-ylmethyl]-cyclopropylmethyl}-amine]
31.9 nM	COc1cccc2c(C3CCN(C[C@@H]4C[C@H]4CN[C@H]4CC[C@H](C)CC4)CC3)noc12 [compound 833329]
22.9 nM	FC(F)(F)c1ccc2c(N3CCN(C[C@@H]4C[C@H]4CN4CCC(n5ccnc5)CC4)CC3)csc2c1 [compound 833349]
0.84 nM	COc1ccccc1N1CCN(C[C@@H]2C[C@H]2CN2CCN(c3csc4cc(C(F)(F)F)ccc34)CC2)CC1 [compound 833379]
112 nM	COc1cccc2c(C3CCN(C[C@@H]4C[C@H]4CNCCC(C)(C)C)CC3)noc12 [compound 833433]

biological target: T2, cloned human alpha-1A adrenergic receptors (α1a) (Homo sapiens, UniProt P35348); assay: [3H]Prazosin binding to cloned human alpha-1A adrenergic receptors expressed in CHO cells; settings: human α-1; 6-fluoro vs 6-trifluoromethyl benzo[b]thiophene pairs; read-out: halpha 1 Ki (nM) h = human
T2 construct: expressed in transfected cells; host or cells: CHO cells, G418-resistant clone, pcDNA3 vector; membrane fragments
T2 sequence (P35348 1-466): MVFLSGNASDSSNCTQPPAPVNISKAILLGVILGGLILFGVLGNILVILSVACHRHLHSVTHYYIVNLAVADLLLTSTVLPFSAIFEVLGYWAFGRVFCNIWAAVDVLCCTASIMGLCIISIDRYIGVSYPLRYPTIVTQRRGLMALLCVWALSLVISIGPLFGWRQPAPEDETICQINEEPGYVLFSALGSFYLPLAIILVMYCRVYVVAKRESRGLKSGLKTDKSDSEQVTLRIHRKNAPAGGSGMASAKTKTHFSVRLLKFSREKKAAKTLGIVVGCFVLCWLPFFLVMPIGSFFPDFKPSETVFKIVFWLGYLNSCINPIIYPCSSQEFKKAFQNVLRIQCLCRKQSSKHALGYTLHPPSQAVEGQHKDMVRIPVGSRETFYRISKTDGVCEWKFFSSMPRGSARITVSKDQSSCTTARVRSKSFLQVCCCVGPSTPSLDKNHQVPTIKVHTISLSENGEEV
Text: ^3H]PRAZOSIN BINDING TO CLONED HUMAN ALPHA-1A ADRENERGIC RECEPTORS (α1a) EXPRESSED IN CHINESE HAMSTER OVARY CELLS (CHO)
Purpose: This in vitro assay is designed as a screen to identify compounds displaying a affinity for the human α1a adrenoceptor subtype expressed in the membrane fragments of CHO cells. The assay measures the ability of the test compounds to displace [^3H] prazosin from α1a sites. • The identification of multiple vascular α1-addrenoceptors (α1a, α1b, α1d) in vitro has provided impetus to define the role(s) of these subtypes in cardiovascular regulation in vivo (Vargas and Gorman, 1995). […] Prazosin is a potent antagonist of the human α1a-adrenoceptor subtype, which has been cloned and is expressed in the membrane fragments of CHO cells. hα1a Receptor: The cloning of the human α1a cDNA was accomplished first by screening a human prostate cDNA library (Clontech), from which a portion of the coding region was obtained. This DNA fragment was then used to screen a human leukocyte genomic library (Clontech), and the rest of the coding sequence was obtained. Later these two fragments were spliced together. The entire coding sequence was then fully sequenced including matching PCR sequence with original genomic coding sequence, thus ensuring splice sites were joined correctly (Schwinn et al., 1995). Once sequenced, the gene was subcloned into the expression vector pcDNA3 (Invitrogen). Plasmid DNA was then used for transfection into CHO cells and G418 resistant clones were isolated. A clone expressing high levels of the hα1a receptor (as determined by mRNA and receptor binding data) was chosen and pharmacologically characterized. Culture Media: Media Ingredients for Adherent α1a expressing CHO Culture: • A. HAM's F-12 (Cellgro) • B. 10% 0.2 micron filtered Fetal Bovine Serum (FBS)(Cellgro) • C. 1% 0.2 micron filtered Penicillin-Streptomycin (Celigro) • D. G418 0.2 micron filtered (Geneticin 400 μg/ml)(Cellgro) • Cells are cultured using established methods and procedures in either 150×25 mm culture plates (scale up to 100 plates) or a combination of these plates and 70 roller bottles. One culturing/harvest cycle typically requires 2 weeks and yields between 100-400 mg protein. Plates or bottles are incubated at 37° C.+5% CO2. Storage: Cells are harvested by mechanical scraping, washed using PBS, collected in 250 ml Corning polypropylene centrifuge tubes, spun down (1500RPM) and resuspended in dH2O 10% DMSO (final volume per harvest is approximately 50 ml). Protein determination is made using the Biorad DC Assay Kit. Finally, the appropriate volume is aliquoted into a 2 ml Corning Cryovial (10 mg/1-1.5 ml) which is stored at −80° C. Current Lot Data:
Assay Requirement: 0.5 cryovials per 96 well plate (assay volume=200 μl/well) [^3H]-Ligand: [7-methoxy-^3H]-Prazosin: 1.0 nM (NEN, NET-823) • 70-87 Ci/mmol Materials: Phentolamine mesylate (Research Biochemicals Int. #P-131) • 96 well flat bottom plates (Beckman) • Unifilter GF/B Plate (Packard) • Polyethylenimine (Sigma #P-3134) • TomTec or Packard Filtermate 196 Cell Harvesters • Packard TopCount Scintillation Counter Buffers: A: 50 mM Tris HCl; 0.1% ascorbate, pH 7.7 (incubation buffer) • B: 50 mM Tris HCl; pH 7.7 (wash buffer) Procedure: Assay additions are as follows (in the order indicated): • Total Binding=50 μl buffer A+50 μl [^3H]prazosin+100 μl membrane • Nonsp. Bd.=50 μl 10 μM phentolamine+50 μl [^3H]prazosin+100 μl membrane • Test Cpd.=50 μl compound+50 μl [^3H]prazosin+100 μl membrane • Compounds to be evaluated are weighed out to yield a 10 mM stock solution in DMSO in a 24 well polystyrene plate. This is diluted to a 0.5 mM stock in dH2O. Serial dilutions in Buffer A are made from which 50 μl additions to the plate are made in duplicate in order to achieve the final concentrations desired. Typically, one 96 well plate is used to evaluate 11 compounds at 4 concentrations (10^−6-10^−9 M) in duplicate. […]

Ki	Structure (SMILES)
5.67 nM	O=C(NCCCCN1CCN(c2csc3cc(F)ccc23)CC1)c1ccc(-c2ccccc2)cc1 [813585A]

tested on: not given; assay: not given; settings: not given

melting point	Structure (SMILES)
263 to 265 °C	Cl.c1cc2onc(C3CCNCC3)c2s1

biological target: Alpha-1 adrenergic receptors from rat brain cortex; assay: [3H]Prazosin binding to alpha-1 adrenergic receptors from rat brain cortex (Protocol 4); settings: r = rat; piperazines (n = 1) vs homopiperazines (n = 2); read-out: r-α1 Ki
Text: [^3H]Prazosin Binding to Alpha-1 Adrenergic Receptors from Rat Brain Cortex
Objective: This in vitro assay is designed as a screen to identify compounds displaying a affinity for the a, adrenoceptor subtype in membranes from rat cortex. It measures the ability of the test compounds to displace [^3H]prazosin from the α1 sites.
Membrane Preparation: Rat brain tissue can be obtained from either fresh (male Wistar rats; 200-250 g) or frozen (male Sprague-Dawley 200-250 g from Harlan; cat. #BT-403) stocks. The cortex is dissected, homogenized in 50 vol (wet weight) ice-cold 50 mM Tris buffer (pH 7.7 at 25° C.). The homogenate is centrifuged at 48,000 g for 10 min, the pellet is resuspended in 50 mM Tris buffer and centrifuged a second time. The second pellet (P2) is resuspended to yield a concentration of 115 mg wet weight per 10 ml. […] Membranes should be mixed just before addition to ensure an even suspension. […] This is diluted to a 0.5 mM stock in dH2O. Serial dilutions in Buffer A are made from which 50 μl additions to the plate are made in duplicate in order to achieve the final concentrations desired. Typically, one 96 well plate is used to evaluate 11 compounds at 4 concentrations (10^−6-10^−9 M) in duplicate. Total binding and nonspecific binding are determined in quadruplicate. Usually one standard is run with each assay. • [^3H]Prazosin is made up in Buffer A such that when 50 μl are added per well the final concentration is […] in a final assay volume of 200 μl. The final concentration should be verified by running a sample in a scintillation counter prior to adding the [^3H]prazosin to the 96 well plate. Note: The radioactivity should be prepared just before the additions are made so that it is not allowed to sit on the bench for very long. • Packard GF/B Plate Pretreatment: The filter plates are presoaked for at least 30 min in ice cold Buffer B containing 0.05% polyethyleneimine (200 μl/200 ml) to maximize filtration efficiency and minimize filter blank binding. • Incubation & Filtration: Once buffer, compounds, [^3H]prazosin and membrane have been added (and mixed), the 96 well plates are incubated for 40 min at 37° C. and spaced 3-5 min apart. At 40 min, the plates are filtered using a Tomtec Automated Cell Harvester. Filtration is immediately followed by washes of ice cold Buffer B (total vol. ˜7 ml). • Drying and Counting: Each filter plate is dried under a heat lamp for 15 min. The back of the plate is sealed and 40 μl of Packard microscint fluid are added per well. Using Packard film, each plate is heat sealed prior to being counted in a Packard Topcount Scintillation counter. A program has been written that counts each plate twice sending DPM, CPM and TSIS data to disk and printer. • Analysis of Results: Raw DPM and CPM data are captured on disk and are imported into one of several software packages (Graphpad Prism Ver 2.0, Excel) residing on the LAN. Specific binding is defined as the difference between total binding and the binding in the presence of 10 μM phentolamine. Total binding is less than 10% of the total added ligand. Software using one-site competition curve analysis is employed in the calculation of IC50 and KI (Cheng-Prusoff equation, 1973). The top and bottom of the non-linear regression are held constant at 0% and 100% inhibition. The percent inhibition at each drug concentration is the mean of duplicate determinations.

Ki	Structure (SMILES)
5 nM	O=C(NCCCCN1CCN(c2csc3cc(F)ccc23)CC1)c1cc2ccccc2s1 [compound 811614]
4.1 nM	COc1ccccc1C(=O)NCCCCN1CCN(c2csc3cc(F)ccc23)CC1 [compound 813368]
1.1 nM	O=C(NCCCCN1CCN(c2csc3cc(F)ccc23)CC1)c1ccco1 [compound 813371]
40.6 nM	O=C(NCCCCN1CCN(c2csc3cc(F)ccc23)CC1)c1ccc2ccccc2c1 [compound 813372]
25.2 nM	O=C(NCCCCN1CCN(c2csc3cc(F)ccc23)CC1)c1cc2ccccc2[nH]1 [compound 813373]
32.4 nM	O=C(NCCCCN1CCN(c2csc3cc(F)ccc23)CC1)c1ccc(C(F)(F)F)cc1 [compound 813374]
21.9 nM	COc1cccc(C(=O)NCCCCN2CCN(c3csc4cc(F)ccc34)CC2)c1 [compound 813380]
5 nM	O=C(NCCCCN1CCN(c2csc3cc(F)ccc23)CC1)c1ccc2[nH]ccc2c1 [compound 814018]
12 nM	O=C(NCCCCN1CCN(c2csc3cc(F)ccc23)CC1)c1c[nH]c2ccccc12 [compound 814026]

same assay, conditions: rat α-1; read-out: rat alpha 1 Ki

Ki	Structure (SMILES)
5 nM	O=C(NCCCCN1CCN(c2csc3cc(F)ccc23)CC1)c1cc2ccccc2s1 [compound 811614]
4.1 nM	COc1ccccc1C(=O)NCCCCN1CCN(c2csc3cc(F)ccc23)CC1 [compound 813368]
1.1 nM	O=C(NCCCCN1CCN(c2csc3cc(F)ccc23)CC1)c1ccco1 [compound 813371]
15.4 nM	O=C(NCCCCN1CCN(c2csc3cc(F)ccc23)CC1)c1sc2ccccc2c1Cl [compound 813377]
32.3 nM	O=C(NCCCCN1CCN(c2csc3cc(F)ccc23)CC1)c1ccc(Br)cc1 [compound 813381]
7 nM	O=C(NCCCCN1CCN(c2csc3cc(F)ccc23)CC1)c1ccc(Cl)cc1 [compound 813754]
4 nM	O=C(NCCCCN1CCN(c2csc3cc(F)ccc23)CC1)c1c(F)cccc1F [compound 813918]
2 nM	O=C(NCCCCN1CCN(c2csc3cc(F)ccc23)CC1)c1ccc(F)cc1F [compound 813920]

More lines, now with the values behind:

Structure (SMILES)	Ki
O=C(NCCCCN1CCN(c2csc3cc(F)ccc23)CC1)c1ccc(C(F)(F)F)cc1 [compound 813374]	32.4 nM
O=C(NCCCCN1CCN(c2csc3cc(F)ccc23)CC1)c1ccc2c(c1)OCO2 [compound 813375]	2.6 nM
CCCCOc1ccc(C(=O)NCCCCN2CCN(c3csc4cc(F)ccc34)CC2)cc1 [compound 813376]	10.9 nM
CCOc1ccc(C(=O)NCCCCN2CCN(c3csc4cc(F)ccc34)CC2)cc1 [compound 813914]	3 nM
